The test system of one assay is HaCaT cells. Nature of the assay: Cytotoxicity (resazurin cell viability) in HaCaT cells. The class given is cell-based, human. The settings on record: Homo sapiens, HaCaT cells, 1.25-320 µM. An excerpt: (§1) The MET1 SCC cell line (human squamous cell carcinoma) was obtained from Ximbio (London, UK), HaCaT (immortalized human keratinocytes cell line) was obtained from Addexbio (San Diego, CA, USA) and WM983b (human metastatic melanoma cell line) was obtained from Rockland (Pottstown, PA, USA). Cells were maintained in Dulbecco’s Modified Eagle Medium (DMEM) supplemented with 10% (v/v) fetal bovine serum (FBS) for MET1 and HaCaT and 5% (v/v) for WM983b cells, and Pen–Strep (penicillin 100 U/mL and streptomycin 100 µg/mL). Cells were cultivated in an incubator (Sanyo MCO-19AIC-UV) at 37 °C in a 5% CO2 humidified atmosphere.
(§2) First, 96-well plates were seeded with HaCaT and MET1 cells at a density of 20,000 cells/cm² and incubated for 24 h. After that period, the culture medium was replaced by culture medium containing different compounds: MB, AO, GV, QT, CUR, EGCG, PHE, NEO and BIPY. The compounds were diluted in culture medium using a range of concentrations of each compound from 1.25 µM to 320 µM (in quadruplicate). The medium was aspirated from the 96-well plate and replaced by the samples diluted in medium. Cells cultured with complete medium and cells cultured with medium supplemented with 0.2% (v/v) or 10% (v/v) of DMSO were used as negative (NC), solvent (SC) and positive controls (PC), respectively. The plates were incubated for 24 and 48 h, followed by evaluation of cell viability using a colorimetric assay. Cells containing samples were washed with PBS supplemented with calcium and magnesium; then, resazurin solution diluted in DMEM at 0.02 mg/mL was added. The medium containing resazurin was also dispensed in wells without cells, which were used as references. After 3 h of incubation, the absorbance was measured in a microplate reader (ELX800UV, Biotek Instruments) at wavelengths of 570 nm and 600 nm. The corrected absorbance was proportional to cell viability. Propagation of uncertainties was used to calculate the combined standard uncertainty. For the cytotoxicity study using WM983b cells, plates were seeded at a density of 40,000 cells/cm², and cells were treated only with MB and AO.
On the technique in general: Alamar Blue is a resazurin reagent that responds to reducing activity.

For assay [1], the system named is WM983b cells. Nature of the assay: Cytotoxicity (resazurin cell viability) in WM983b cells. The settings on record: for IC50: Homo sapiens, 1.25-320 µM. It is filed as cell-based, human.
Excerpt: as §1, §2

Assay [2] concerns MET1 cells. Nature of the assay: Intracellular ROS production in MET1 cells (DHE fluorescence). The conditions noted are these: 5 µM. It is filed as cell-based, human. The method, then:
MET1 cells were seeded at a density of 20,000 cells/cm² in 24-well plates. After 24 h, cells were treated with MB and AO diluted in culture medium at low concentrations (1.25 µM, 2.5 µM and 5 µM). The medium culture was replaced by the prepared samples. Plates were incubated for 24 h; then, cells were washed with medium, and DMEM without phenol red was added. The plates were submitted to 2.5 J/cm² irradiation under red light at 640 nm for MB and 457 nm blue light for AO. Dihydroethidium (DHE) was used to evaluate ROS production. For this assay, the medium was removed after irradiation, and 20 µM of DHE diluted in medium was added. The plate was incubated for 20 min, washed with medium and incubated 20 min with Hoechst 33342 (5 µg/mL), which was used to stain the cells’ nuclei. After removing the excess dye, culture medium was added, and the cells were immediately observed using a Nikon Ti-S epifluorescence microscope. Cells were examined using a 40 × objective in random areas of 4 different wells under the same treatment condition. Images were analyzed using ImageJ software, and the intensity was measured according to integrated density values of red fluorescence.

Assay [3] deals with WM983b cells. Nature of the assay: Phototoxicity assay in WM983b cells (irradiation 2.5 J/cm², resazurin). The conditions noted are these: Homo sapiens, light or radiation study, treated 24 h. The class given is cell-based.
Excerpt: as §1
For the phototoxicity studies, 96-well plates were seeded with MET1 cells at a density of 20,000 cells/cm², incubated overnight and treated for 24 h with MB, AO, GV, QT, CUR, EGCG, PHE, NEO and BIPY diluted in culture medium in a concentration range of 1.25 µM to 40 µM (in sextuplicate). […] Cells cultured with complete medium and cells cultured with medium supplemented with 0.2% (v/v) or 10% (v/v) of DMSO were used as negative (NC), solvent (SC) and positive control (PC), respectively. The plates were incubated for 24 h, followed by washing with PBS supplemented with calcium and magnesium. Afterwards, complete culture medium without phenol red was added, and the plates were irradiated from above and submitted to a dose of 2.5 J/cm² of irradiation emitted by different wavelength light sources coupled with a homemade irradiation system created in our laboratory. These light sources consisted of an equivalent 26 cm UV tubular lamp (254 nm) (Phillips TUV PLS 9W/2PHg) and a tricolor LED lamp (Led Grow Light Bulb E26/E27) with intensity peaks at 457 nm (blue light), 583 nm (yellow light) and 640 nm (red light) provided by 18, 18 and 28 LEDs, respectively, with dimensions of 3 × 3 mm^2. The irradiance values of light at 254, 457, 583 and 640 nm wavelengths were of 16.7, 55, 45 and 25 W/m^2, respectively. This experiment was performed in an incubator that was able to keep plates in a dark environment; therefore, the dark control plates were protected from any light source, as well as the others, with the exception of the irradiation that each one was submitted to. Plates were incubated for another 24 h, and finally, the resazurin assay was performed as previously described in Section 3.3. For the phototoxicity study using WM983b cells, plates were prepared at a cell density of 40,000 cells/cm², and cells were treated with MB and AO only.

The subject of assay [4] is MET1 cells. Nature of the assay: Cytotoxicity (resazurin cell viability) in MET1 cells. The class given is cell-based, human. The settings on record: Homo sapiens, MET-1, MET1 cells, 1.25-320 µM.
Excerpt: as §1, §2

Read-outs that look alike come from different tables or passages of the source.

What is called IC50 is the point on the concentration scale where inhibition reaches its midpoint. For the molecule `CN(C)c1ccc2cc3ccc(N(C)C)cc3nc2c1` [Acridine orange, acridine orange], the IC50 in the assay on HaCaT cells (24 h exposure, read-out: IC50 HaCaT Cells 24 h) came out at 10.5 µM; in the assay on HaCaT cells (48 h exposure, read-out: IC50 HaCaT Cells 48 h), 6.5 µM; in the assay on WM983b cells [1] (24 h exposure, read-out: IC50 WM983b cells 24 h), 25.2 µM; in the assay on WM983b cells [1] (48 h exposure, read-out: IC50 WM983b cells 48 h), 6.6 µM; in the assay on WM983b cells [3] (457 nm light, 2.5 J/cm², read-out: IC50 irradiated samples (457 nm)) it was 1.1 µM; in the assay with WM983b cells [3] (without irradiation, read-out: IC50 non-irradiated samples), 17.5 µM. The IC50 was 15.1 µM in the assay with MET1 cells [4] (24 h exposure, read-out: IC50 MET1 Cells 24 h) and 10.3 µM with MET1 cells [4] (48 h exposure, read-out: IC50 MET1 Cells 48 h). For the same molecule, the “concentration above which the relative cell population falls below 70%” value with WM983b cells [1] (24 or 48 h) is recorded as greater than 20 µM. The “increase in fluorescence (DHE, integrated density) vs irradiated control” value in the assay with MET1 cells [2] (457 nm irradiation 2.5 J/cm², vs irradiated control 0 µM) is “about 2.6 fold”. Besides, the “increase in fluorescence intensity (DHE, integrated density) vs non-irradiated control” value in the assay with MET1 cells [2] (non-irradiated, vs non-irradiated control 0 µM) was “about 1.8 fold”.

(Values after publication PMC10054552, “Phototoxic Potential of Different DNA Intercalators for Skin Cancer Therapy: In Vitro Screening” (International Journal of Molecular Sciences, 2023).)
